According to EP3822285A1, “VARIANT NISIN PEPTIDES” (University College Cork-National University of Ireland, Cork, priority 2019, dated 2021):
In brackets after ≈: the same amount, converted by molar mass. Several values for one entry are separate records, joined by “and”; a condition that tells them apart may be missing. Equal entries are not always repeated. Marks after values point to notes of the source that are not given here.

What was measured:
Format in all cases: cell-based
[1] = system: Thermus scotoductus SE-1; test: Agar diffusion assay with cell free supernatant of producing strains; conditions: zone diameter relative to Nisin A wild type (100)
Description: (§1) Agar diffusion assays were carried out in triplicate using nisin producing and indicator (T. thermophilus HB27 and T. scotoductus Se-1) strains. Both the producer and indicator strains were cultured as per conditions described above. One ml of overnight culture of indicators were added to 50ml of molten Castenholz agar, briefly swirled and poured. Wells were made using sterile glass pipette. To generate cell free supernatant from nisin producing strains, 10 mls of overnight cultures of the strains were centrifuged at 950g for 20 mins. The cell free supernatant was transferred to a sterile tube. 50 µl of cell free supernatant was added to wells described above. Plates were incubated at 55°C for 3 days and the zone of clearance measured.
(§2) The cell free supernatant of nisin A and nisin variant producing L. lactis was used to determine the bioactivity of these lantibiotics against T. thermophilus HB27 and T. scotoductus SE-1 using agar diffusion assays, with the zone of clearance representing the bioactivity of the producing strain (i.e., representing a combination of the amount of the peptide produced and the specific activity of that peptide). […] Among the variants tested were those with altered N-terminal domains. The N-terminal domain of nisin is important for binding with the pyrophosphate moiety of lipid II to mediate pore formation in the cell membrane. Lysine (K) at position 12, which serves as a small flexible region between ring B and C, and is one of among the 5 positively charged residues (K12, K22, K34, H27, […]) of nisin A that contributes to its cationic nature and its attraction to the cell envelope.

[2] = system: T. scotoductus SE-1; test: Minimum inhibitory concentration assay (Thermus); conditions: for MIC: pure peptide, mean of triplicate assays
Description: (§3) Minimum inhibitory concentration (MIC) determinations for gram negative Thermus strains were carried out in triplicate in round bottom microtitre plates (Corning). 96 well microtitre plates were pre-treated with bovine serum albumin (BSA) prior to addition of the peptides. Briefly, to each well of the microtire plates 200 µl of d.H2O (filtered with 0.2 µm filter) containing 1% (w/w) BSA was added and incubated at 37°C for 30 mins. The wells were washed with 200 µl of IX phosphate buffered saline (PBS) for 2 times after removing 1% BSA d.H2O. 100 µl of growth media, i.e., Castenholz, was added to each well. […] Target strains were grown overnight as per conditions mention above, 0.5 ml of overnight was subcultured in to 10 mls of fresh Castenholz medium and allowed to grow to an OD600 of ∼0.5. 20µl of this subculture was added to 980µl of media, 150µl of this dilution added to 14.85 ml of growth media. 100µl of this dilution added to each well resulting in a final inoculum of ∼10^5 cfu/ml in 200µl. The plates were incubated at 55° C for 3 days and the MIC was determined as the lowest concentration at which no growth was visible.
(§4) The bioactivity of cell-free supernatant can be influenced by altered diffusion rates, solubility, production or specific activity. To determine to what extent, if any, the bioactivity noted above is due to increased specific activity, nisin A (control) and the derivatives were purified and their molecular weights confirmed by MALDI TOF mass spectrometry (Table: 6) (Figure: 4). These peptides were used to perform minimum inhibitory concentration assays against six Thermus strains, i.e., T. thermophilus HB27, T. scotoductus SE-1, T. rehai, T. oshimai, T. aquaticus and T. brockianus.

[3] = system: T. brockianus; test: Minimum inhibitory concentration assay (Thermus); conditions: pure peptide, mean of triplicate assays
Description: as §3, §4

[4] = system: T. thermophilus HB27; test: Minimum inhibitory concentration assay (Thermus); conditions: for MIC: pure peptide, mean of triplicate assays
Description: as §3, §4

[5] = system: T. aquaticus; test: Minimum inhibitory concentration assay (Thermus); conditions: for MIC: pure peptide, mean of triplicate assays
Description: as §3, §4

[6] = system: T. rehai; test: Minimum inhibitory concentration assay (Thermus); conditions: for MIC: pure peptide, mean of triplicate assays
Description: as §3, §4

[7] = system: T. oshimai; test: Minimum inhibitory concentration assay (Thermus); conditions: for MIC: pure peptide, mean of triplicate assays
Description: as §3, §4

[8] = system: Thermus thermophilus HB27; test: Agar diffusion assay with cell free supernatant of producing strains; conditions: zone diameter relative to Nisin A wild type (100)
Description: as §1, §2

Row | SMILES | % of wild type [1] | MIC [2] | MIC [3] | MIC [4] | MIC [5] | MIC [6] | MIC [7] | % difference [8] | fold better activity than nisin A [4] | fold better activity than nisin A [5] | fold better activity than nisin A [6] | fold better activity than nisin A [7] | fold better activity than nisin A [2]
1 | C=C(NC(=O)[C@@H](NC(=O)[C@H](Cc1c[nH]cn1)NC(=O)[C@@H](NC(=O)[C@H](CO)NC(=O)[C@@H]1CS[C@@H](C)[C@H]2NC(=O)[C@H](C)NC(=O)[C@H](NC(=O)[C@H](CCCCN)NC(=O)[C@H](C)NC(=O)[C@H](C)NC(=O)[C@@H]3CS[C@@H](C)[C@@H](NC(=O)[C@H](CCCCN)NC(=O)[C@@H]4CS[C@@H](C)[C@@H](NC(=O)[C@@H]5CSC[C@@H](NC(=O)/C(=C/C)NC(=O)[C@@H](N)[C@@H](C)CC)C(=O)N[C@@H]([C@@H](C)CC)C(=O)NC(=C)C(=O)N[C@@H](CC(C)C)C(=O)N5)C(=O)N5CCC[C@H]5C(=O)NCC(=O)N4)C(=O)NCC(=O)N[C@@H](C)C(=O)N[C@@H](CC(C)C)C(=O)N[C@@H](CCSC)C(=O)NCC(=O)N3)[C@H](C)SC[C@H](NC2=O)C(=O)N[C@@H](Cc2c[nH]cn2)C(=O)N1)[C@@H](C)CC)C(C)C)C(=O)N[C@@H](CCCCN)C(=O)O [AAK] | 132* (0.004) % | 0.0625 µM (≈ 0.203 µg/mL) | 0.0156 µM (≈ 0.0507 µg/mL) | 0.0312 µM (≈ 0.101 µg/mL) | 0.0625 µM (≈ 0.203 µg/mL) | 0.0156 µM (≈ 0.0507 µg/mL) | 0.0156 µM (≈ 0.0507 µg/mL) |  |  |  |  |  | 
2 | C=C(NC(=O)[C@@H](NC(=O)[C@H](Cc1c[nH]cn1)NC(=O)[C@@H](NC(=O)[C@H](CO)NC(=O)[C@@H]1CS[C@@H](C)[C@H]2NC(=O)[C@H](C)NC(=O)[C@H](NC(=O)[C@H](CCCCN)NC(=O)[C@H](CCSC)NC(=O)[C@H](CC(N)=O)NC(=O)[C@@H]3CS[C@@H](C)[C@@H](NC(=O)[C@H](CCCCN)NC(=O)[C@@H]4CS[C@@H](C)[C@@H](NC(=O)[C@@H]5CSC[C@@H](NC(=O)/C(=C/C)NC(=O)[C@@H](N)[C@@H](C)CC)C(=O)N[C@@H]([C@@H](C)CC)C(=O)NC(=C)C(=O)N[C@@H](CC(C)C)C(=O)N5)C(=O)N5CCC[C@H]5C(=O)NCC(=O)N4)C(=O)NCC(=O)N[C@@H](C)C(=O)N[C@@H](CC(C)C)C(=O)N[C@@H](CCSC)C(=O)NCC(=O)N3)[C@H](C)SC[C@H](NC2=O)C(=O)N[C@@H](CCC(N)=O)C(=O)N1)[C@@H](C)CC)C(C)C)C(=O)N[C@@H](CCCCN)C(=O)O [H27Q] | 115% | 0.0625 µM (≈ 0.209 µg/mL) | 0.0156 µM (≈ 0.0522 µg/mL) | 3.2 µg/L and 0.000975 µM | 3.26 µg/L and 0.000975 µM | 3.2 µg/L and 0.000975 µM | 3.2 µg/L and 0.000975 µM | 136* (0.031) % | 8 fold | 14 fold | 8 fold | 8 fold | 
3 | C=C(NC(=O)[C@@H](NC(=O)[C@H](Cc1c[nH]cn1)NC(=O)[C@@H](NC(=O)[C@H](CO)NC(=O)[C@@H]1CS[C@@H](C)[C@H]2NC(=O)[C@H](C)NC(=O)[C@H](NC(=O)[C@H](CCCCN)NC(=O)[C@H](CCSC)NC(=O)[C@H](CC(N)=O)NC(=O)[C@@H]3CS[C@@H](C)[C@@H](NC(=O)[C@H](CCSC)NC(=O)[C@@H]4CS[C@@H](C)[C@@H](NC(=O)[C@@H]5CSC[C@@H](NC(=O)/C(=C/C)NC(=O)[C@@H](N)[C@@H](C)CC)C(=O)N[C@@H]([C@@H](C)CC)C(=O)NC(=C)C(=O)N[C@@H](CC(C)C)C(=O)N5)C(=O)N5CCC[C@H]5C(=O)NCC(=O)N4)C(=O)NCC(=O)N[C@@H](C)C(=O)N[C@@H](CC(C)C)C(=O)N[C@@H](CCSC)C(=O)NCC(=O)N3)[C@H](C)SC[C@H](NC2=O)C(=O)N[C@@H](Cc2c[nH]cn2)C(=O)N1)[C@@H](C)CC)C(C)C)C(=O)N[C@@H](CCCCN)C(=O)O [K12M] | 118% | 0.125 µM (≈ 0.42 µg/mL) | 0.0625 µM (≈ 0.21 µg/mL) | 0.0156 µM (≈ 0.0524 µg/mL) | 0.0156 µM (≈ 0.0524 µg/mL) | 0.0078 µM (≈ 0.0262 µg/mL) | 0.0156 µM (≈ 0.0524 µg/mL) | 118% |  |  |  |  | 
4 | C=C(NC(=O)[C@@H](NC(=O)[C@H](Cc1c[nH]cn1)NC(=O)[C@@H](NC(=O)[C@H](CO)NC(=O)[C@@H]1CS[C@@H](C)[C@H]2NC(=O)[C@H](C)NC(=O)[C@H](NC(=O)[C@H](CCCCN)NC(=O)[C@H](CCSC)NC(=O)[C@H](CC(N)=O)NC(=O)[C@@H]3CS[C@@H](C)[C@@H](NC(=O)[C@H](CO)NC(=O)[C@@H]4CS[C@@H](C)[C@@H](NC(=O)[C@@H]5CSC[C@@H](NC(=O)/C(=C/C)NC(=O)[C@@H](N)[C@@H](C)CC)C(=O)N[C@@H]([C@@H](C)CC)C(=O)NC(=C)C(=O)N[C@@H](CC(C)C)C(=O)N5)C(=O)N5CCC[C@H]5C(=O)NCC(=O)N4)C(=O)NCC(=O)N[C@@H](C)C(=O)N[C@@H](CC(C)C)C(=O)N[C@@H](CCSC)C(=O)NCC(=O)N3)[C@H](C)SC[C@H](NC2=O)C(=O)N[C@@H](Cc2c[nH]cn2)C(=O)N1)[C@@H](C)CC)C(C)C)C(=O)N[C@@H](CCCCN)C(=O)O [K12S] | 123% | 0.0312 µM (≈ 0.103 µg/mL) | 0.0312 µM (≈ 0.103 µg/mL) | 0.0312 µM (≈ 0.103 µg/mL) | 0.0312 µM (≈ 0.103 µg/mL) | 0.0156 µM (≈ 0.0517 µg/mL) | 0.0156 µM (≈ 0.0517 µg/mL) | 125% |  |  |  |  | 2 fold
5 | C=C(NC(=O)[C@@H](NC(=O)[C@H](Cc1c[nH]cn1)NC(=O)[C@@H](NC(=O)[C@H](CO)NC(=O)[C@@H]1CS[C@@H](C)[C@H]2NC(=O)[C@H](C)NC(=O)[C@H](NC(=O)[C@H](CCCCN)NC(=O)[C@H](CCSC)NC(=O)[C@H](CC(N)=O)NC(=O)[C@@H]3CS[C@@H](C)[C@@H](NC(=O)[C@@H](NC(=O)[C@@H]4CS[C@@H](C)[C@@H](NC(=O)[C@@H]5CSC[C@@H](NC(=O)/C(=C/C)NC(=O)[C@@H](N)[C@@H](C)CC)C(=O)N[C@@H]([C@@H](C)CC)C(=O)NC(=C)C(=O)N[C@@H](CC(C)C)C(=O)N5)C(=O)N5CCC[C@H]5C(=O)NCC(=O)N4)[C@@H](C)O)C(=O)NCC(=O)N[C@@H](C)C(=O)N[C@@H](CC(C)C)C(=O)N[C@@H](CCSC)C(=O)NCC(=O)N3)[C@H](C)SC[C@H](NC2=O)C(=O)N[C@@H](Cc2c[nH]cn2)C(=O)N1)[C@@H](C)CC)C(C)C)C(=O)N[C@@H](CCCCN)C(=O)O [K12T] | 140* (0.001) % | 0.0625 µM (≈ 0.208 µg/mL) | 0.0625 µM (≈ 0.208 µg/mL) | 0.0156 µM (≈ 0.0519 µg/mL) | 0.0312 µM (≈ 0.104 µg/mL) | 0.0156 µM (≈ 0.0519 µg/mL) | 0.0312 µM (≈ 0.104 µg/mL) | 148* (.001) % |  |  |  |  | 
6 | C=C(NC(=O)[C@@H](NC(=O)[C@H](Cc1c[nH]cn1)NC(=O)[C@@H](NC(=O)[C@H](CO)NC(=O)[C@@H]1CS[C@@H](C)[C@H]2NC(=O)[C@H](C)NC(=O)[C@H](NC(=O)[C@H](C)NC(=O)CNC(=O)[C@@H]3CCCN3C(=O)[C@@H]3CS[C@@H](C)[C@@H](NC(=O)[C@H](CCCCN)NC(=O)[C@@H]4CS[C@@H](C)[C@@H](NC(=O)[C@@H]5CSC[C@@H](NC(=O)/C(=C/C)NC(=O)[C@@H](N)[C@@H](C)CC)C(=O)N[C@@H]([C@@H](C)CC)C(=O)NC(=C)C(=O)N[C@@H](CC(C)C)C(=O)N5)C(=O)N5CCC[C@H]5C(=O)NCC(=O)N4)C(=O)NCC(=O)N[C@@H](C)C(=O)N[C@@H](CC(C)C)C(=O)N[C@@H](CCSC)C(=O)NCC(=O)N3)[C@H](C)SC[C@H](NC2=O)C(=O)N[C@@H](Cc2c[nH]cn2)C(=O)N1)[C@@H](C)CC)C(C)C)C(=O)N[C@@H](CCCCN)C(=O)O [PGA] |  | 0.125 µM (≈ 0.401 µg/mL) | 0.0625 µM (≈ 0.2 µg/mL) | 0.0156 µM (≈ 0.05 µg/mL) | 0.0312 µM (≈ 0.1 µg/mL) | 0.0156 µM (≈ 0.05 µg/mL) | 0.0078 µM (≈ 0.025 µg/mL) | 113% |  |  |  |  | 
